Measurements as given in ChEMBL document CHEMBL1201862, “PubChem BioAssay data set” (2004).
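All cell lines were grown in 96-well plates and treated with compound for 48 hours. Here, GI50 denotes the concentration required for 50% inhibition of growth.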 Activity calls are given as the source filed them. No stated cut-off is given here; in the data, active = GI50 up to about 1.1 µM and inactive = higher.

What was measured:
Experiment in all cases: inhibition of tumour cell growth, NCI panel, 48 h
HOP-18 = test system: HOP-18
SNB-78 = test system: SNB-78
XF498 = test system: XF498
DLD-1 = test system: DLD-1
KM-20L2 = test system: KM-20L2
LXFL 529 = test system: LXFL 529
DMS-114 = test system: DMS-114
DMS-273 = test system: DMS-273
RXF 631 = test system: RXF 631

Q: What does the source list for `Cc1ccc(NC(=O)C(=O)C2NC(=S)NC2=O)c([N+](=O)[O-])c1` (stereo not given)?
A: GI50 (HOP-18): > 100 µM (inactive); GI50 (SNB-78): > 100 µM (inactive); GI50 (XF498): > 100 µM (inactive); GI50 (DLD-1): > 100 µM (inactive); GI50 (KM-20L2): > 100 µM (inactive); GI50 (LXFL 529): > 100 µM (inactive); GI50 (DMS-114): > 100 µM (inactive); GI50 (DMS-273): > 100 µM (inactive)

Q: Which results are given for `Cc1cc(O)nc(NN2C(Cl)C(=O)C2c2ccc(Cl)cc2)n1` (stereo not given)?
A: GI50 (HOP-18): 8.55 µM (inactive); GI50 (SNB-78): 17.9 µM (inactive); GI50 (KM-20L2): 20.6 µM (inactive); GI50 (LXFL 529): 5.86 µM (inactive); GI50 (DMS-114): 13.5 µM (inactive); GI50 (DMS-273): 11.9 µM (inactive)

Q: How did the GI50 (HOP-18) turn out when `CCc1c(OC(C)=O)c2c(NC3OC(COC(C)=O)C(OC(C)=O)C(OC(C)=O)C3OC(C)=O)nc(OC)nc2oc1=O` (stereo not given) was run?
A: Its GI50 is > 100 µM (inactive).

Q: What about the GI50 (SNB-78) of the same molecule?
A: Its GI50 is > 100 µM (inactive).

Q: And the GI50 (XF498)?
A: The GI50 was > 100 µM (inactive).

Q: What about the GI50 (DLD-1) of the same molecule?
A: The GI50 was > 100 µM (inactive).

Q: What about the GI50 (KM-20L2) of the same molecule?
A: The GI50 was > 100 µM (inactive).

Q: And the GI50 (LXFL 529)?
A: The GI50 was > 100 µM (inactive).

Q: And the GI50 (DMS-114)?
A: The GI50 was > 100 µM (inactive).

Q: And the GI50 (DMS-273)?
A: Its GI50 is > 100 µM (inactive).

Q: Which GI50 (SNB-78) does the source give for `Cc1ccc(S(=O)(=O)N/N=C\c2c3ccccc3[n+](C)c3ccccc23)cc1` here?
A: Its GI50 is 61.7 µM (inactive).

Q: What about the GI50 (DLD-1) of the same molecule?
A: Its GI50 is 38.1 µM (inactive).

Q: And the GI50 (KM-20L2)?
A: Its GI50 is 31.7 µM (inactive).

Q: What about the GI50 (DMS-114) of the same molecule?
A: The GI50 was 24.9 µM (inactive).

Q: And the GI50 (DMS-273)?
A: The GI50 was 22.1 µM (inactive).

Q: `O=C(O/N=C1/CCCC/C1=C\c1ccccc1)c1ccc(Cl)cc1` was tested. Which GI50 (HOP-18) did it give?
A: Its GI50 is > 100 µM (inactive).

Q: What about the GI50 (SNB-78) of the same molecule?
A: Its GI50 is > 100 µM (inactive).

Q: What about the GI50 (XF498) of the same molecule?
A: Its GI50 is 0.439 µM (active).

Q: And the GI50 (DLD-1)?
A: Its GI50 is > 100 µM (inactive).

Q: What about the GI50 (KM-20L2) of the same molecule?
A: The GI50 was > 100 µM (inactive).

Q: What about the GI50 (LXFL 529) of the same molecule?
A: The GI50 was 48 µM (inactive).

Q: What about the GI50 (DMS-273) of the same molecule?
A: Its GI50 is > 100 µM (inactive).

Q: How did the GI50 (HOP-18) turn out when `CCN(CC)CCC(=O)Nc1ccc2c(c1)C(=O)c1ccc(NC(=O)CCN(CC)CC)cc1C2=O` was run?
A: The GI50 was 0.475 µM (active).

Q: What about the GI50 (SNB-78) of the same molecule?
A: Its GI50 is 5.96 µM (inactive).

Q: What about the GI50 (DLD-1) of the same molecule?
A: The GI50 was 1.81 µM (inactive).

Q: What about the GI50 (KM-20L2) of the same molecule?
A: Its GI50 is 14.6 µM (inactive).

Q: And the GI50 (LXFL 529)?
A: Its GI50 is 3.11 µM (inactive).

Q: What about the GI50 (DMS-114) of the same molecule?
A: The GI50 was 3.21 µM (inactive).

Q: What about the GI50 (DMS-273) of the same molecule?
A: Its GI50 is 1.19 µM (inactive).

Q: What does the source list for `CC1(C)OCN(c2ccc(N3CCOCC3)cc2)Cn2c1nc1ccccc12`?
A: GI50 (HOP-18): > 100 µM (inactive); GI50 (SNB-78): > 100 µM (inactive); GI50 (DLD-1): > 100 µM (inactive); GI50 (KM-20L2): > 100 µM (inactive); GI50 (LXFL 529): > 100 µM (inactive); GI50 (DMS-114): > 100 µM (inactive); GI50 (DMS-273): 80.9 µM (inactive)

Q: How did the GI50 (SNB-78) turn out when `c1cnc2nc3n(c2c1)CSC3` was run?
A: The GI50 was > 100 µM (inactive).

Q: What about the GI50 (XF498) of the same molecule?
A: The GI50 was > 100 µM (inactive).

Q: What about the GI50 (DLD-1) of the same molecule?
A: The GI50 was > 100 µM (inactive).

Q: What about the GI50 (KM-20L2) of the same molecule?
A: Its GI50 is > 100 µM (inactive).

Q: And the GI50 (LXFL 529)?
A: The GI50 was > 100 µM (inactive).

Q: What about the GI50 (DMS-114) of the same molecule?
A: Its GI50 is > 100 µM (inactive).

Q: Which GI50 (SNB-78) does the source give for `O=[N+]([O-])c1nccn1COCCI` here?
A: The GI50 was > 100 µM (inactive).

Q: And the GI50 (XF498)?
A: The GI50 was > 100 µM (inactive).

Q: What about the GI50 (DLD-1) of the same molecule?
A: The GI50 was > 100 µM (inactive).

Q: And the GI50 (KM-20L2)?
A: The GI50 was > 100 µM (inactive).

Q: What about the GI50 (LXFL 529) of the same molecule?
A: The GI50 was > 100 µM (inactive).

Q: What about the GI50 (DMS-114) of the same molecule?
A: The GI50 was > 100 µM (inactive).

Q: And the GI50 (DMS-273)?
A: The GI50 was > 100 µM (inactive).

Q: With `CCOC(=O)Nc1ccc(S(=O)(=O)I)cc1.CCOC(=O)Nc1ccc(S(=O)(=O)I)cc1.CN(C=O)C1=C(N(C)C=O)C(N(C)C=O)=C(N(C)C=O)C(=O)C1=O` as the molecule, how does the GI50 (HOP-18) read?
A: Its GI50 is > 100 µM (inactive).

Q: What about the GI50 (SNB-78) of the same molecule?
A: Its GI50 is > 100 µM (inactive).

Q: What about the GI50 (RXF 631) of the same molecule?
A: The GI50 was > 100 µM (inactive).

Q: And the GI50 (XF498)?
A: Its GI50 is > 100 µM (inactive).

Q: And the GI50 (KM-20L2)?
A: The GI50 was > 100 µM (inactive).

Q: And the GI50 (LXFL 529)?
A: Its GI50 is > 100 µM (inactive).

Q: What about the GI50 (DMS-114) of the same molecule?
A: The GI50 was > 100 µM (inactive).

Q: With `C=C1C(=O)C23C(O)C1CC[C@H]2C12CCCC(C)(COC(C)=O)[C@H]1[C@H](O)[C@]3(O)OC2` (stereo not given in full) as the molecule, how does the GI50 (HOP-18) read?
A: The GI50 was 1.27 µM (inactive).

Q: What about the GI50 (SNB-78) of the same molecule?
A: Its GI50 is 0.653 µM (active).

Q: And the GI50 (XF498)?
A: Its GI50 is 1.4 µM (inactive).

Q: And the GI50 (DLD-1)?
A: Its GI50 is 0.577 µM (active).

Q: And the GI50 (KM-20L2)?
A: Its GI50 is 1.56 µM (inactive).

Q: What about the GI50 (LXFL 529) of the same molecule?
A: Its GI50 is 0.427 µM (active).

Q: What about the GI50 (DMS-114) of the same molecule?
A: Its GI50 is 1.87 µM (inactive).

Q: What about the GI50 (DMS-273) of the same molecule?
A: The GI50 was 1.94 µM (inactive).

Q: With `Cc1ccccc1-n1c2nc(=O)n(C)c(=O)c-2nc2ccccc21` as the molecule, how does the GI50 (HOP-18) read?
A: Its GI50 is 10.5 µM (inactive).

Q: And the GI50 (SNB-78)?
A: Its GI50 is 18.6 µM (inactive).

Q: And the GI50 (RXF 631)?
A: The GI50 was 14.6 µM (inactive).

Q: And the GI50 (XF498)?
A: Its GI50 is 17.5 µM (inactive).

Q: What about the GI50 (DLD-1) of the same molecule?
A: The GI50 was 16.7 µM (inactive).

Q: And the GI50 (KM-20L2)?
A: Its GI50 is 7.35 µM (inactive).

Q: What about the GI50 (LXFL 529) of the same molecule?
A: Its GI50 is 12.5 µM (inactive).

Q: What about the GI50 (DMS-114) of the same molecule?
A: The GI50 was 4.9 µM (inactive).

Q: What about the GI50 (DMS-273) of the same molecule?
A: The GI50 was 10.9 µM (inactive).
